Test results as given in patent publication US20100173837A1, “DOSING FORMS AND REGIMENS COMPRISING 3-[(R)-2-(N,N-DIMETHYLAMINO)ETHYLTHIO-SAR]-4-(GAMMAHYDROXYMETHYLLEUCINE)CYCLOSPORINE” (priority 2009, published 2010).
Values after ≈ are worked out from the molar mass of the structure shown. Values joined by “and” are separate entries in the source; they are usually repeats but may differ in a detail not shown here. Equal values may be shown once. Read-outs that look alike come from different tables or passages of the source.

Assays:
[1] = test system: Con1 (genotype 1b) bi-cistronic subgenomic replicon in Huh-7; assay: anti-HCV activity in Huh-7 subgenomic replicon, luciferase; type: cell-based; conditions: for EC50 / EC90 / IC50 / IC90: Hepatitis C virus; for EC50: corresponds to IC50 in μM, read-out: mean effective concentration EC50; for EC90: read-out: mean effective concentration EC90
Experimental: The anti-HCV activity of SCY-635 was assessed in a human hepatoma cell line (Huh-7) that contains a Con1 (genotype 1b) bi-cistronic subgenomic replicon. The replicon contains a stable luciferase reporter gene and three cell culture adaptive mutations. The subgenomic replicon contains the 5′ terminus (which includes the HCV Internal Ribosomal Entry Site and the first few amino acids of the HCV core protein) which drives the production of the neomycin phosphotransferase protein. The EMCV IRES element directs the translation of the second cistronic unit that encodes the non-structural proteins NS3, NS4A, NS4B, NS5A, and NS5B. For comparative purposes HCV RNA replication was assessed by quantifying HCV replicon-derived luciferase activity and by quantifying HCV-specific RNA using reverse transcriptase-real time PCR. Duplicate plates were incubated with various concentrations of SCY-635 and were processed either for luciferase activity or for total RNA extraction at 24, 48, 72 and 120 hours after drug treatment. SCY-635 was tested at twelve half-log dilutions ranging from 0.00016 to 50 μM. Stock solutions of each test article were diluted into culture media and added to the plate. After a 72 hour incubation, cells were processed to determine luciferase luminescence as a measurement of antiviral activity. Three replicates were performed and mean values were calculated.

[2] = cell cytotoxicity on replicon cells (LDH release, ribosomal RNA); conditions: human, replicon cells (Huh-7 background)
Experimental: (§1) Cell cytotoxicity was assessed by measuring the release of lactate dehydrogenase from cell membranes and by measuring total ribosomal RNA. […] SCY-635 was assessed for cytotoxicity in primary human hepatocytes. […] SCY-635 was also assessed for cytotoxicity in primary human renal tubular epithelial cells.

[3] = test system: replicon cells; assay: as above; conditions: replicon cells
Experimental: as §1

[4] = in vitro; conditions: human
Experimental: as §1

[5] = test system: Huh-7 cell line; assay: in vitro; conditions: Huh-7 cell line
Experimental: as §1

[6] = test system: primary human hepatocytes
Experimental: as §1

[7] = test system: primary human renal tubular epithelial cells
Experimental: as §1

[8] = test system: full length genotype 1b derived replicon in human hepatoma cell line; assay: anti-HCV activity in full length genotype 1b replicon, RT-PCR; type: cell-based; conditions: 72-hour incubation
Experimental: (§2) The anti-HCV activity of SCY-635 was also assessed in a human hepatoma cell line that contains a full length genotype 1b derived replicon. Cells were processed following a 72-hour incubation at 37° C. Intracellular RNA from each well was extracted and the level of HCV-specific RNA was determined by reverse transcriptase-real time PCR. Cytotoxic effects were measured by assessing ribosomal RNA as an indication of total cell numbers.

[9] = test system: human hepatoma cell line containing full length replicon; assay: cytotoxicity in full length replicon cells (ribosomal RNA); type: cell-based; conditions: concentrations up to 10 μM, 72-hour incubation
Experimental: as §2

[10] = test system: hepatitis C (subtype 1); assay: plasma HCV RNA viral load in HCV-infected subjects, 15-day t.i.d. study; type: in vivo, human; conditions: 15 days, per os
Experimental: All human subjects were male (n=20); 75% were African American. Average age was 53.0 years. […] Viral load data from the study described in Example 4 above was measured by the quantitative Roche COBAS […] assay. The test measures HCV RNA in International Units (IU) per mL using real-time Polymerase Chain Reaction (RT-PCR) technology. […] All clinical viral load samples were assayed at LabCorp.

[11] = human, in vivo
Experimental: SCY-635 (given as oral capsules as described in Example 3 above) was examined in a randomized, double-blind, placebo-controlled, multi-dose study to adult volunteers who are chronically infected with hepatitis C (subtype 1). Three cohorts received 100, 200 or 300 milligrams of SCY-635 three times per day (100 mg, 200 mg or 300 mg t.i.d., respectively) per os for 15 consecutive days. The 100 mg t.i.d. cohort was comprised of 7 human subjects (1 placebo and 6 active); the 200 mg t.i.d. cohort was comprised of 6 human subjects (1 placebo and 5 active); and the 300 mg t.i.d. cohort was comprised of 7 human subjects (1 placebo and 6 active).
All human subjects were male (n=20); 75% were African American. Average age was 53.0 years. Average HCV RNA plasma viremia on enrollment was 5,600,000 IU/ml, as measured by the quantitative Roche COBAS taqMan assay. 55% of human subjects were treatment naïve.

[12] = single dose pharmacokinetic study in healthy volunteers; conditions: human, in vivo, 400 mg single dose (capsules), read-out: Mean SCY-635 Plasma Concentration
Experimental: Blood samples were collected from human subjects during the 72-hour interval immediately following administration of a single dose of SCY-635. […] Concentrations of SCY-635 in human blood and plasma samples from the study described in this Example were determined using validated high pressure liquid chromatography/tandem mass spectrometric (HPLC-MS/MS) methods with assay ranges of 50 to 5000 ng/mL for whole blood and 15 to 2000 ng/mL for plasma. The table below summarizes the results obtained (“BLOQ” means below the limit of quantitation).

[13] = human, in vivo; remark: listed apart in the source
Description: SCY-635 (given as oral capsules [400 milligram dose] or tablets [500 and 600 milligram doses] as described in Example 3 above) was examined in a randomized, double-blind, placebo-controlled, pharmacokinetic study in normal healthy adult volunteers. Three cohorts received a single dose of either 400, 500 or 600 milligrams of SCY-635. Each cohort was comprised of 8 human subjects (2 placebo and 6 active). Blood samples were collected from human subjects during the 72-hour interval immediately following administration of a single dose of SCY-635.

[14] = 500 mg b.i.d. 14-day pharmacokinetic study in healthy volunteers; conditions: human, in vivo, 264 h post first dose, read-out: Mean SCY-635 Plasma Concentration
Description: SCY-635 (given as oral tablets as described in Example 3 above) was examined in a double-blind, placebo-controlled, pharmacokinetic study in normal healthy adult volunteers. […] On Day 14, only the morning dose of drug was given and blood samples were collected during the 72-hour interval immediately following administration of the final dose. In addition, blood samples for the measurement of trough drug concentrations were collected from the subjects immediately prior to the administration of SCY-635 on the mornings of Days 2-6 and 8-13. […] Concentrations of SCY-635 in human blood and plasma samples from the two subjects were determined using validated high pressure liquid chromatography/tandem mass spectrometric (HPLC-MS/MS) methods with assay ranges of 50 to 5000 ng/mL for whole blood and 15 to 2000 ng/mL for plasma.

[15] = human, in vivo; remark: listed apart in the source
Description: SCY-635 (given as oral tablets as described in Example 3 above) was examined in a double-blind, placebo-controlled, pharmacokinetic study in normal healthy adult volunteers. […] On Day 14, only the morning dose of drug was given and blood samples were collected during the 72-hour interval immediately following administration of the final dose. In addition, blood samples for the measurement of trough drug concentrations were collected from the subjects immediately prior to the administration of SCY-635 on the mornings of Days 2-6 and 8-13.

[16] = test system: HCV-specific RNA replication; conditions: subgenomic and full length replicon systems; cited from earlier work
[17] = target: T1, cyclophilin A (Homo sapiens, UniProt P62937); conditions: in vitro studies; cited from earlier work
T1 sequence (P62937 whole entry): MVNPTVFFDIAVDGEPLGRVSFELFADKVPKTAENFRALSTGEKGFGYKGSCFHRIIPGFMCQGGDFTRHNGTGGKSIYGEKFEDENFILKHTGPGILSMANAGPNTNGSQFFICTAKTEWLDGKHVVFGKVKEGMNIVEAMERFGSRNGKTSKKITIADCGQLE

[18] = target: T1, cyclophilin A; conditions: in vitro studies; cited from earlier work; remark: listed apart in the source
[19] = Huh-7, by inspection of the curves
[20] = linear regression, 72 hour incubation, luciferase

C/C=C/C[C@@H](C)[C@@H](O)[C@H]1C(=O)N[C@@H](CC)C(=O)N(C)[C@H](SCCN(C)C)C(=O)N(C)[C@@H](CC(C)(C)O)C(=O)N[C@@H](C(C)C)C(=O)N(C)[C@@H](CC(C)C)C(=O)N[C@@H](C)C(=O)N[C@H](C)C(=O)N(C)[C@@H](CC(C)C)C(=O)N(C)[C@@H](CC(C)C)C(=O)N(C)[C@@H](C(C)C)C(=O)N1C [SCY-635, 3-[(R)-2-(N,N-dimethylamino)ethylthio-Sar]-4-(gammahydroxymethylleucine)cyclosporine]
EC50 [1, 19]: 0.107 mg/L (≈ 0.0809 µM) | EC50 ([1]; Huh-7, linear regression): 0.121 mg/L (≈ 0.0915 µM) | EC90 ([1]; Huh-7, linear regression, corresponds to IC90 in μM): 0.501 mg/L (≈ 0.379 µM) | IC50 ([1]; Huh-7, by inspection of the curves, 72 hour incubation, luciferase, read-out: mean IC50 (HCV replication)): 0.081 µM | IC90 ([1]; Huh-7, by inspection of the curves, read-out: mean IC90 (HCV replication)): 0.333 µM | EC90 [1, 19]: 0.441 mg/L (≈ 0.334 µM) | IC50 ([1]; Huh-7, linear regression, 72 hour incubation, luciferase, read-out: mean calculated IC50 (HCV replication)): 0.091 µM | IC90 ([1]; Huh-7, linear regression, 72 hour incubation, luciferase, read-out: mean calculated IC90 (HCV replication)): 0.397 µM | mean IC75 (HCV replication) ([1]; by inspection of the curves): 0.165 µM | mean IC95 (HCV replication) ([1]; by inspection of the curves): 0.410 µM | mean IC98 (HCV replication) ([1]; by inspection of the curves): 0.500 µM | mean effective concentration EC75 ([1]; by inspection of the curves): 0.217 mg/L | mean effective concentration EC95 ([1]; by inspection of the curves): 0.542 mg/L | mean effective concentration EC98 ([1]; by inspection of the curves): 661 ng/mL | mean effective concentration EC99 ([1]; by inspection of the curves): 2088 ng/mL | sixth IC value of the list (not named; matches EC99) ([1]; by inspection of the curves): 1.580 µM | mean calculated IC75 (HCV replication) [1, 20]: 0.200 µM | mean calculated IC95 (HCV replication) [1, 20]: 0.455 µM | mean effective concentration EC75 ([1]; linear regression, corresponds to IC75 in μM): 0.264 mg/L | mean effective concentration EC95 ([1]; linear regression, corresponds to IC95 in μM): 0.601 mg/L | CC50 at 72 h [2]: 14.2 µM | selectivity index (CC50/IC50) [3]: 129.0 | cell cytotoxicity ([3]; 72-hour incubation, concentrations up to and including 5 μM): No significant cell cytotoxicity | CC50 at 72 h [4]: 13.7 µM | selectivity index (CC50/IC50) [5]: 124.5 | 50% inhibitory concentration for cell viability ([6]; human, 48 h): 33 µM | selectivity index ([6]; primary human hepatocytes): approximately 300 | 50% inhibitory concentration for cell viability [7]: 60.6 µM | EC50 ([8]; 3 independent experiments, single values, read-out: EC50 (HCV-specific RNA)): 0.16 µM and 0.21 µM | EC90 ([8]; 3 independent experiments, single values, read-out: EC90 (HCV-specific RNA)): 0.71 µM and 0.79 µM | EC50 ([8]; Hepatitis C virus, 72 h, 3 independent experiments, single values, read-out: EC50 (HCV-specific RNA)): 0.13 µM | EC90 ([8]; Hepatitis C virus, 72 h, 3 independent experiments, single values, read-out: EC90 (HCV-specific RNA)): 0.57 µM | EC50 ([8]; Hepatitis C virus, 72 h, mean of 3 experiments, read-out: mean EC50 (HCV-specific RNA)): 0.17 µM | EC90 ([8]; Hepatitis C virus, 72 h, mean of 3 experiments, read-out: mean EC90 (HCV-specific RNA)): 0.69 µM | cell cytotoxicity [9]: absence of significant cell cytotoxicity | mean nadir value of plasma HCV RNA below baseline ([10]; 100 mg t.i.d.): less than 0.5 log10 | median nadir value of plasma HCV RNA below baseline ([10]; 100 mg t.i.d.): less than 0.5 log10 | mean nadir value of plasma HCV RNA below baseline ([10]; 200 mg t.i.d.): less than 0.5 log10 | median nadir value of plasma HCV RNA below baseline ([10]; 200 mg t.i.d.): less than 0.5 log10 | group mean nadir value of plasma HCV RNA below baseline ([10]; 300 mg t.i.d.): 2.33 log10 | group median nadir value of plasma HCV RNA below baseline ([10]; 300 mg t.i.d.): 1.90 log10 | dose limiting toxicity [11]: no evidence of a dose limiting toxicity | concentration at 8 h [12]: 0.107 µg/mL | dose limiting toxicity [13]: no evidence of a dose limiting toxicity | concentration at 264 h [14]: 0.411 µg/mL | dose limiting toxicity [15]: no evidence of a dose limiting toxicity | inhibition of HCV-specific RNA replication [16]: potent and selective inhibition | binding to cyclophilin A [17]: capable of binding to cyclophilin A | inhibition of peptidyl prolyl isomerase activity of cyclophilin A [18]: inhibiting its intrinsic peptidyl prolyl isomerase activity
